Measured values as given in ChEMBL document CHEMBL1201862, “PubChem BioAssay data set” (2004).
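Test compounds were applied to cells in 96-well plates for 48 hours at 5 doses. GI50 = concentration required for 50% inhibition of growth.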 Activity calls are given as the source filed them. Rule as the data show it: active = GI50 up to about 1.1 µM and inactive = higher.

Columns and labels:
Assay in all cases: NCI tumour cell line growth inhibition, 48 h
DLD-1 = system: DLD-1
DMS-273 = system: DMS-273
KM-20L2 = system: KM-20L2
LXFL 529 = system: LXFL 529
SNB-78 = system: SNB-78
NCI/ADR-RES = system: NCI/ADR-RES
BT-549 = system: BT-549
MDA-MB-231 = system: MDA-MB-231

In the case of `COc1ccc2c(c1)c(=O)c1ccccc1n2/C=C/C(=O)O`, the GI50 (DLD-1) is reported as > 47 µM (inactive), the GI50 (DMS-273) is reported as > 41.3 µM (inactive) and the GI50 (KM-20L2) is reported as 26.7 µM (inactive). The GI50 (LXFL 529) was > 100 µM (inactive) and the GI50 (SNB-78) was > 100 µM (inactive).
`NC(Cc1cc(I)c(O)c(I)c1)C(=O)O` (centres undefined) was tested, and the GI50 (DLD-1) was 418 µM (inactive), the GI50 (DMS-273) was > 206 µM (inactive) and the GI50 (KM-20L2) was > 500 µM (inactive). For the same compound, the GI50 (NCI/ADR-RES) was > 316 µM (inactive) and the GI50 (SNB-78) was > 500 µM (inactive).
For `CCOC(=O)C(SCCO)C(C(=O)OCC)n1ccc(=O)[nH]c1=O` (centres undefined), the GI50 (BT-549) was > 58.7 µM (inactive), the GI50 (MDA-MB-231) was 35.8 µM (inactive) and the GI50 (NCI/ADR-RES) was 25.4 µM (inactive).
For `Oc1cc(Cl)cc2cc(Br)cnc12`, the GI50 (BT-549) was 1.53 µM (inactive), the GI50 (MDA-MB-231) was 2.56 µM (inactive) and the GI50 (NCI/ADR-RES) was 2.06 µM (inactive).
For `O=c1cnn(C/C=C\CO)c(=O)[nH]1`, the GI50 (MDA-MB-231) was > 100 µM (inactive) and the GI50 (NCI/ADR-RES) was > 100 µM (inactive).
In the case of `COC(=O)C1(F)C(=O)NC(=O)NC1O` (centres undefined), the GI50 (MDA-MB-231) is reported as > 100 µM (inactive) and the GI50 (NCI/ADR-RES) is reported as > 100 µM (inactive).
In the case of `COc1ccc(C2c3cc4c(cc3OC(N3CCOCC3)C2C)OCO4)cc1OC` (centres undefined), the GI50 (BT-549) is reported as 7.48 µM (inactive), the GI50 (MDA-MB-231) is reported as 16.2 µM (inactive) and the GI50 (NCI/ADR-RES) is reported as 3.61 µM (inactive).
With `C/C(CC(O)(C(F)(F)F)C(F)(F)F)=N/Nc1ccc([N+](=O)[O-])cc1[N+](=O)[O-]` the GI50 (MDA-MB-231) was 2.28 µM (inactive) and the GI50 (NCI/ADR-RES) was 2.85 µM (inactive).
With `CC(C)c1nccn1Cc1ccc(Cl)cc1Cl` the GI50 (BT-549) was 64.1 µM (inactive), the GI50 (MDA-MB-231) was 81.5 µM (inactive) and the GI50 (NCI/ADR-RES) was 27 µM (inactive).
In the case of `C=C(Br)CN(C)CC(=C)Br`, the GI50 (BT-549) is reported as > 100 µM (inactive), the GI50 (MDA-MB-231) is reported as > 100 µM (inactive) and the GI50 (NCI/ADR-RES) is reported as > 100 µM (inactive).
With `CC1C2CC(C(C3C(=O)C4CC3C(C)(C)C4C)C2=O)C1(C)C` (centres undefined) the GI50 (BT-549) was > 100 µM (inactive) and the GI50 (MDA-MB-231) was > 100 µM (inactive).
In the case of `CC1(C)C2CCC1(C)[C@H](O)[C@H]2Nc1cc(C(F)(F)F)cc(C(F)(F)F)c1` (some centres undefined), the GI50 (BT-549) is reported as 3.91 µM (inactive), the GI50 (MDA-MB-231) is reported as 4.53 µM (inactive) and the GI50 (NCI/ADR-RES) is reported as 3.07 µM (inactive).
In the case of `O=C(CC/C(C/C(=N/O)c1ccc(F)cc1)=N/O)N(Cc1ccccc1)Cc1ccccc1`, the GI50 (DLD-1) is reported as > 100 µM (inactive), the GI50 (DMS-273) is reported as > 100 µM (inactive) and the GI50 (KM-20L2) is reported as > 100 µM (inactive). For the same compound, the GI50 (LXFL 529) was > 100 µM (inactive).
In the case of `COc1ccc(CCn2ccc(C)n2)c(OC)c1`, the GI50 (BT-549) is reported as > 100 µM (inactive), the GI50 (MDA-MB-231) is reported as > 100 µM (inactive) and the GI50 (NCI/ADR-RES) is reported as 90.2 µM (inactive).
For `O=C1[C@@H]2[C@@H](CN3CN(c4ccccc4)N=C(c4ccccc4)[C@@]23c2ccccc2)C(=O)N1c1ccccc1`, the GI50 (BT-549) was 3.61 µM (inactive), the GI50 (MDA-MB-231) was 4.54 µM (inactive) and the GI50 (NCI/ADR-RES) was 17.5 µM (inactive).
For `O=C1OC(c2ccccc2Br)=N/C1=C/c1ccccc1`, the GI50 (MDA-MB-231) was 40.7 µM (inactive).
With `CC(C)=C[C@@H]1C[C@H](C)[C@H]2CC[C@H](C)[C@H]3C(=O)C(O)=C(C)C(=O)[C@]123` the GI50 (BT-549) was > 100 µM (inactive), the GI50 (MDA-MB-231) was > 100 µM (inactive) and the GI50 (NCI/ADR-RES) was > 100 µM (inactive).
With `NC(=O)c1oc([N+](=O)[O-])c(-c2ccccc2)c1-c1ccccc1` the GI50 (BT-549) was 8 µM (inactive), the GI50 (MDA-MB-231) was 13.5 µM (inactive) and the GI50 (NCI/ADR-RES) was 19.4 µM (inactive).
In the case of `CC(CO)(CO)N1C(=O)C2C3C=CC(C3)C2C1=O` (centres undefined), the GI50 (MDA-MB-231) is reported as > 100 µM (inactive) and the GI50 (NCI/ADR-RES) is reported as > 100 µM (inactive).
`CC1=CCC2CC1C(C(=O)c1c[nH]c3ccccc13)=NC2(C)C` (centres undefined) was tested, and the GI50 (BT-549) was 40 µM (inactive), the GI50 (MDA-MB-231) was 51.9 µM (inactive) and the GI50 (NCI/ADR-RES) was 59.3 µM (inactive).
In the case of `O=C(Nc1nc2ncn(CCO)c2c(=O)[nH]1)c1ccccc1`, the GI50 (DLD-1) is reported as > 100 µM (inactive), the GI50 (DMS-273) is reported as > 100 µM (inactive) and the GI50 (KM-20L2) is reported as > 100 µM (inactive). For the same compound, the GI50 (LXFL 529) was > 100 µM (inactive) and the GI50 (SNB-78) was > 100 µM (inactive).
For `NC(=O)c1ccccc1NC(=O)C(=O)Nc1n[nH]c(N)n1`, the GI50 (DLD-1) was > 100 µM (inactive), the GI50 (DMS-273) was > 100 µM (inactive) and the GI50 (KM-20L2) was > 100 µM (inactive). For the same compound, the GI50 (LXFL 529) was > 100 µM (inactive) and the GI50 (SNB-78) was > 100 µM (inactive).
`Cc1ccc2oc(=O)c(-c3ccccc3)nc2c1` was tested, and the GI50 (DLD-1) was 11.7 µM (inactive) and the GI50 (DMS-273) was 17.6 µM (inactive).
For `CCC(Sc1cc(Cl)c(C)cc1S(=O)(=O)Nc1nc(N)nc(N(C)C)n1)C(=O)O` (centres undefined), the GI50 (BT-549) was > 10 µM (inactive) and the GI50 (NCI/ADR-RES) was > 10 µM (inactive).
For `O=C(/C=C/c1ccccc1)Oc1cccc(O)c1`, the GI50 (BT-549) was > 100 µM (inactive), the GI50 (MDA-MB-231) was 47.9 µM (inactive) and the GI50 (NCI/ADR-RES) was 42.8 µM (inactive).
In the case of `CC(Cc1ccc2c(c1)OCO2)N(C)C(=O)C1=CCN(C)CC1` (centres undefined), the GI50 (BT-549) is reported as > 100 µM (inactive), the GI50 (MDA-MB-231) is reported as > 100 µM (inactive) and the GI50 (NCI/ADR-RES) is reported as > 100 µM (inactive).
In the case of `CC12CCC3C(CCC4=CC(O)CCC43C=O)C1(O)CCC2c1ccc(=O)oc1` (centres undefined), the GI50 (DMS-273) is reported as 0.00497 µM (active), the GI50 (KM-20L2) is reported as 0.00832 µM (active) and the GI50 (NCI/ADR-RES) is reported as 0.0253 µM (active). The GI50 (SNB-78) was 0.0075 µM (active).
For `Nc1nc(Cl)cc(NCC2(CO)CCC(OCc3ccccc3)C2)n1` (centres undefined), the GI50 (BT-549) was 13.9 µM (inactive), the GI50 (MDA-MB-231) was 7.45 µM (inactive) and the GI50 (NCI/ADR-RES) was 3.81 µM (inactive).
In the case of `COc1cccc(CCn2c(N)c(C#N)c3ccc([N+](=O)[O-])cc3c2=O)c1`, the GI50 (BT-549) is reported as > 10 µM (inactive), the GI50 (MDA-MB-231) is reported as > 46.5 µM (inactive) and the GI50 (NCI/ADR-RES) is reported as > 46.5 µM (inactive).
With `CCOC(=O)N/N=C(/N)Cc1ccccc1` the GI50 (BT-549) was > 100 µM (inactive), the GI50 (MDA-MB-231) was > 100 µM (inactive) and the GI50 (NCI/ADR-RES) was > 100 µM (inactive).
`CC(=O)N(C)SCC(NC(=O)C(Cc1ccccc1)NC(=O)OCc1ccccc1)C(=O)NC(Cc1ccccc1)C(=O)NC(Cc1cn(C=O)c2ccccc12)C(=O)NC(CCCCNC(=O)OCc1ccccc1)C(=O)NC(C(=O)NC(CSN(C)C(C)=O)C(=O)NO)C(C)OCc1ccccc1` (centres undefined) was tested, and the GI50 (BT-549) was > 100 µM (inactive), the GI50 (MDA-MB-231) was > 100 µM (inactive) and the GI50 (NCI/ADR-RES) was > 100 µM (inactive).
In the case of `O=C(NCCNCCO)N/N=C/c1cccc([N+](=O)[O-])c1`, the GI50 (DLD-1) is reported as > 100 µM (inactive), the GI50 (DMS-273) is reported as > 100 µM (inactive) and the GI50 (KM-20L2) is reported as > 100 µM (inactive). For the same compound, the GI50 (LXFL 529) was > 100 µM (inactive) and the GI50 (SNB-78) was > 100 µM (inactive).
